Assay results: paper PMC6384562, “Isolation of Two New Compounds and Other Constituents from Leaves of Piper crocatum and Study of Their Soluble Epoxide Hydrolase Activities” (Molecules, 2019)

Target: T1, soluble epoxide hydrolase (sEH) (Homo sapiens, UniProt P34913)
T1 construct: gene EPHX2
T1 sequence (P34913 1-555): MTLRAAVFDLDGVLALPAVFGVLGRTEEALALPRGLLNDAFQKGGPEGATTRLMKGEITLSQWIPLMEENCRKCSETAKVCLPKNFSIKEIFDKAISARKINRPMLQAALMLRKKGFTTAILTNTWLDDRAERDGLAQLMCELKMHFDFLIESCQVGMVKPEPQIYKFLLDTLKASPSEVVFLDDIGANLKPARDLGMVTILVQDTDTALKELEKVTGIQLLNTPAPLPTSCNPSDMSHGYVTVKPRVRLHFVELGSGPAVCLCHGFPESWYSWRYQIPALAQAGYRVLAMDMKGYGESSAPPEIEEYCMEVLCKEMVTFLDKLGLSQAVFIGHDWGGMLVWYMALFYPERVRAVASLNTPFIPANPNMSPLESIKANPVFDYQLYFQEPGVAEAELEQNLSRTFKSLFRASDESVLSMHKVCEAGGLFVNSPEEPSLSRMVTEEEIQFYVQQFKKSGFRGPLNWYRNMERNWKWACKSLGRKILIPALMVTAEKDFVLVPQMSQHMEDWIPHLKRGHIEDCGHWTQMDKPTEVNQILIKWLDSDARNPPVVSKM
Test: fluorescence assay with recombinant human sEH and PHOME substrate
Assay type: biochemical

Structure (SMILES): C=CCc1cc(OC)c(O[C@@H]2O[C@H](CO)[C@@H](O)[C@H](O)[C@H]2O)c(OC)c1 [compound 5, erigeside II]
- IC50: 58.5 ± 0.5 µM
